Source: PubChem BioAssay AID1918994 (Molecular Pharmacology Branch, DTP, NCI, 2023)
pIC50: −log10 of the molar value. Values joined by “and” are separate entries in the source; they are usually repeats but may differ in a detail not shown here. Equal entries are not always repeated.

Test system: 292921-168-R-J2-PDC complex spheroid growth
Assay: Anticancer human tumor 292921-168-R-J2-PDC patient-derived pancreatic carcinoma cell line growth inhibition [AhR]
Details: for viability, T/C: stronger effect = lower value
How it was run: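 Complex tumor spheroids co-cultured with HUVEC and human MSC stroma; AhR antagonists tested in combination with standard-of-care and investigational agents. Top concentration at or near clinical Cmax (else 10 microM), half-log dilutions; growth expressed as percent test/control.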

[1] = curve of first compound, second compound 0.1 µM
[2] = curve of first compound, second compound 0.316 µM
[3] = curve of first compound, second compound 1 µM
[4] = curve of first compound, second compound 3.16 µM
[5] = curve of first compound, second compound 10 µM
[6] = second compound 0.1 µM, first compound 0.0316 µM
[7] = second compound 0.1 µM, first compound 0.1 µM
[8] = second compound 0.316 µM, first compound 0.0316 µM
[9] = second compound 0.316 µM, first compound 0.1 µM
[10] = second compound 1 µM, first compound 0.0316 µM
[11] = second compound 1 µM, first compound 0.1 µM
[12] = second compound 3.16 µM, first compound 0.0316 µM
[13] = second compound 3.16 µM, first compound 0.1 µM
[14] = second compound 10 µM, first compound 0.0316 µM
[15] = second compound 10 µM, first compound 0.1 µM
[16] = second compound 0.1 µM, first compound 0.316 µM
[17] = second compound 0.1 µM, first compound 1 µM
[18] = second compound 0.1 µM, first compound 3.16 µM
[19] = second compound 0.1 µM, first compound 10 µM
[20] = second compound 0.316 µM, first compound 0.316 µM
[21] = second compound 0.316 µM, first compound 1 µM
[22] = second compound 0.316 µM, first compound 3.16 µM
[23] = second compound 0.316 µM, first compound 10 µM
[24] = second compound 1 µM, first compound 0.316 µM
[25] = second compound 1 µM, first compound 1 µM
[26] = second compound 1 µM, first compound 3.16 µM
[27] = second compound 1 µM, first compound 10 µM
[28] = second compound 3.16 µM, first compound 0.316 µM
[29] = second compound 3.16 µM, first compound 1 µM
[30] = second compound 3.16 µM, first compound 3.16 µM
[31] = second compound 3.16 µM, first compound 10 µM
[32] = second compound 10 µM, first compound 0.316 µM
[33] = second compound 10 µM, first compound 1 µM
[34] = second compound 10 µM, first compound 3.16 µM
[35] = second compound 10 µM, first compound 10 µM
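Note: spheroids exposed to compounds for seven days after three days of growth.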

SMILES	pIC50 [1]	pIC50 [2]	pIC50 [3]	pIC50 [4]	pIC50 [5]	viability, T/C [6] [%]	viability, T/C [7] [%]	viability, T/C [8] [%]	viability, T/C [9] [%]	viability, T/C [10] [%]	viability, T/C [11] [%]	viability, T/C [12] [%]	viability, T/C [13] [%]	viability, T/C [14] [%]	viability, T/C [15] [%]	viability, T/C [16] [%]	viability, T/C [17] [%]	viability, T/C [18] [%]	viability, T/C [19] [%]	viability, T/C [20] [%]	other results
CC[C@@]1(O)C(=O)OCc2c1cc1n(c2=O)Cc2cc3c(CN(C)C)c(O)ccc3nc2-1 + Cc1ccccc1N=Nc1ccc(NC(=O)c2ccnn2C)c(C)c1	7.64	7.73	7.73	7.86	7.90	38.7	16.8	36.2	18.6	39.1	15.6	32.8	14.1	28.9	16.2						viability, T/C (second compound 0.1 µM, first compound 0.000316 µM): 90.9%; viability, T/C (second compound 0.1 µM, first compound 0.001 µM): 90.8%; viability, T/C (second compound 0.1 µM, first compound 0.00316 µM): 82.5%; viability, T/C (second compound 0.1 µM, first compound 0.01 µM): 79.5%; viability, T/C (second compound 0.316 µM, first compound 0.000316 µM): 82.9%; viability, T/C (second compound 0.316 µM, first compound 0.001 µM): 92.5%; viability, T/C (second compound 0.316 µM, first compound 0.00316 µM): 81.2%; viability, T/C (second compound 0.316 µM, first compound 0.01 µM): 66.2%; viability, T/C (second compound 1 µM, first compound 0.000316 µM): 86.6%; viability, T/C (second compound 1 µM, first compound 0.001 µM): 88%; viability, T/C (second compound 1 µM, first compound 0.00316 µM): 76.9%; viability, T/C (second compound 1 µM, first compound 0.01 µM): 62.9%; viability, T/C (second compound 3.16 µM, first compound 0.000316 µM): 76%; viability, T/C (second compound 3.16 µM, first compound 0.001 µM): 70.4%; viability, T/C (second compound 3.16 µM, first compound 0.00316 µM): 67.1%; viability, T/C (second compound 3.16 µM, first compound 0.01 µM): 58.2%; viability, T/C (second compound 10 µM, first compound 0.000316 µM): 54.4%; viability, T/C (second compound 10 µM, first compound 0.001 µM): 61.1%; viability, T/C (second compound 10 µM, first compound 0.00316 µM): 52.6%; viability, T/C (second compound 10 µM, first compound 0.01 µM): 55.6%
COc1cccc2c1C(=O)c1c(O)c3c(c(O)c1C2=O)CC(O)(C(=O)CO)CC3OC1CC(N)C(O)C(C)O1 (configuration not stated) + Cc1cncc(-c2nc(NCCc3c[nH]c4ccccc34)c3ncn(C(C)C)c3n2)c1	> 7.50	> 7.50	> 7.50	> 7.50	> 7.50	30.9	25.2	30.6	23.2	29.3	22.7	26.8	22.1	25.3	21.3	9.88	0.21	0.78	2.79	9.81	viability, T/C [21]: 0.2%; viability, T/C [22]: 0.66%; viability, T/C [23]: 2.98%; viability, T/C [24]: 9.15%; viability, T/C [25]: 0.34%; viability, T/C [26]: 1.61%; viability, T/C [27]: 3.01%; viability, T/C [28]: 9.58%; viability, T/C [29]: 0.2%; viability, T/C [30]: 1.48%; viability, T/C [31]: 3.82%; viability, T/C [32]: 10.8%; viability, T/C [33]: 0.46%; viability, T/C [34]: 2.04%; viability, T/C [35]: 4.23%
CC1(C)CCC(CN2CCN(c3ccc(C(=O)NS(=O)(=O)c4ccc(NCC5CCOCC5)c([N+](=O)[O-])c4)c(Oc4cnc5[nH]ccc5c4)c3)CC2)=C(c2ccc(Cl)cc2)C1 + CC(CO)NC(=O)c1cc(-c2ccc(Cl)cc2)nn(-c2cnn(C)c2)c1=O	5.21	5.20	5.17	5.24	5.37	103	101	105	98.7	96.7	94.9	92.9	87.4	67.8	70.7	108	103	91.1	20.7	106	viability, T/C [21]: 95.6%; viability, T/C [22]: 97.5%; viability, T/C [23]: 18.8%; viability, T/C [24]: 102%; viability, T/C [25]: 98.2%; viability, T/C [26]: 101%; viability, T/C [27]: 25.6%; viability, T/C [28]: 93.3%; viability, T/C [29]: 96.7%; viability, T/C [30]: 83.8%; viability, T/C [31]: 18.5%; viability, T/C [32]: 71.6%; viability, T/C [33]: 72.5%; viability, T/C [34]: 62.2%; viability, T/C [35]: 16%
COc1cccc2c1C(=O)c1c(O)c3c(c(O)c1C2=O)CC(O)(C(=O)CO)CC3OC1CC(N)C(O)C(C)O1 (configuration not stated)																					viability, T/C (compound 0.0316 µM): 37.4% and 25.9% and 34.4%; viability, T/C (compound 0.1 µM): 26.1% and 17.6% and 21.9%; viability, T/C (compound 0.316 µM): 10.9% and 4.94% and 7.46%; viability, T/C (compound 1 µM): 0.32% (2×) and 0.28%; viability, T/C (compound 3.16 µM): 0.76% (2×) and 0.73%; viability, T/C (compound 10 µM): 2.02% and 2.08% and 3.06%; pIC50 (curve of compound): > 7.50
NS(=O)(=O)OCC1CC(n2ccc3c(NC4CCc5ccccc54)ncnc32)CC1O (configuration not stated) + CC(CO)NC(=O)c1cc(-c2ccc(Cl)cc2)nn(-c2cnn(C)c2)c1=O	6.67	6.66	6.65	6.68	6.77	117	98.1	125	98	116	101	105	93.5	89.6	73.1	24.8	5.49	4.31	5.11	28.5	viability, T/C [21]: 6.03%; viability, T/C [22]: 3.81%; viability, T/C [23]: 4.31%; viability, T/C [24]: 27.8%; viability, T/C [25]: 5.81%; viability, T/C [26]: 4.08%; viability, T/C [27]: 4.94%; viability, T/C [28]: 25.2%; viability, T/C [29]: 5.74%; viability, T/C [30]: 4%; viability, T/C [31]: 5.65%; viability, T/C [32]: 22.2%; viability, T/C [33]: 6.76%; viability, T/C [34]: 3.96%; viability, T/C [35]: 5.6%
